Source: patent EP4768471A1, “SIX-MEMBERED AND FIVE-MEMBERED FUSED RING DERIVATIVE, AND PREPARATION METHOD THEREFOR AND USE THEREOF” (Guangdong Hengqin Novagains Biopharmaceutical Co., Ltd., priority 2023, dated 2025)
Where two headings read alike, the source gives them in different places.

What was measured:
[1] = target: T1, human urate transporter 1 (hURAT1) (Homo sapiens, UniProt Q96S37); assay: Inhibitory activity against urate transporter URAT1 (14C-uric acid uptake in Flp-In-T-REx-293-hURAT1 cells); format: cell-based
T1 construct: host or cells: Flp-In-T-REx-293 (HEK293-derived), doxycycline-induced
T1 sequence (Q96S37 1-553): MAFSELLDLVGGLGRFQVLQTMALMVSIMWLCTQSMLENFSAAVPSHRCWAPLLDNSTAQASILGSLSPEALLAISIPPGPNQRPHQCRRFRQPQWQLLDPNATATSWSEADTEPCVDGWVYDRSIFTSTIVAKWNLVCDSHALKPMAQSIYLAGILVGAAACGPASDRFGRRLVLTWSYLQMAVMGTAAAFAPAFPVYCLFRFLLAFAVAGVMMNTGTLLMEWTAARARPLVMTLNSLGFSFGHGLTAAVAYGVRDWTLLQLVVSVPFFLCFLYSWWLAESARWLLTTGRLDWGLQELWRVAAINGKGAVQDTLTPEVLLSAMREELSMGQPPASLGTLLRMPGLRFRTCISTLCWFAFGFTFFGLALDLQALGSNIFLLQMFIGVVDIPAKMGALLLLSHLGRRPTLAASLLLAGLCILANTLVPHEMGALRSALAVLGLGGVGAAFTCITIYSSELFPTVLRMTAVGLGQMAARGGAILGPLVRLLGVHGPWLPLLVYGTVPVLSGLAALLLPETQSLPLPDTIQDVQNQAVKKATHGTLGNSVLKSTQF
Description: Inhibitory activity of each compound against urate transporter URAT1 was tested. Compounds: the compounds of the present disclosure were prepared according to the methods in examples; Verinurad was purchased commercially; and CDER167 was prepared according to the method described in the literature (doi: 10.1038/s41401-021-00640-5). Cells: Flp-In-T-REx-293-hURAT1 cells capable of expressing human urate transporter 1 (hURAT1), were purchased from Pharmaron Beijing Co., Ltd., China or can be generated (e.g., by transfecting hURAT1 genes into commercially available Flp-In-T-REx-293 cells according to the method described in the literature doi: 10.1124/dmd.106.012187, and the expression of the hURAT1 genes can be verified by methods such as Western blotting). [drawing 76] The Flp-In-T-REx-293-hURAT1 cells were cultured in a Dulbecco's Modified Eagle Medium (DMEM) in 75 cm^2 flasks under 5% CO2 and 37°C, and passaged every two days. […] The cells were resuspended in the DMEM and then counted, and subsequently prepared into a cell suspension with a proper density. The cells were seeded into a 96-well plate and cultured in a 37°C and 5% CO2 incubator for 24 h. The culture medium was removed, and DMEM containing 200 ng/mL doxycycline was added. The cells were then placed back into the 37°C and 5% CO2 incubator and cultured for 18 h. The test compounds were serially diluted 3-fold in DMSO starting from 10 mmol/L to prepare 10 stock solutions at varying concentrations. A buffer solution was prepared, which contained 125 mmol/L sodium gluconate, 4.8 mmol/L potassium gluconate, 5.6 mmol/L glucose, 1.2 mmol/L potassium dihydrogen phosphate, 1.2 mmol/L magnesium sulfate, 1.3 mmol/L calcium gluconate and 25 mmol/L HEPES (pH = 7.4). 1.2 µL of each test compound stock solution was mixed with 119 µL of buffer to form an assay buffer. After induction for 16 h, the culture medium was removed, and the cells were washed with a prewarmed buffer and incubated for 10 min at 37°C. The buffer was then removed, and an assay buffer containing 50 µmol/L ^14C-uric acid and the test compound was added to the cells, and then the cells were incubated at 37°C for 5 min. The buffer was removed, the cells were washed three times with a precool buffer. Subsequently, 100 mmol/L NaOH was added to lyse the cells for 20 min. The lysate was transferred to a 96-well plate, and then 200 µL of UltimaGold XR scintillation cocktail was added, and radioactivity was measured using a MicroBeta^2 (PerkinElmer). The half-maximal inhibitory concentration (IC50) of each test compound was calculated via GraphPad Prism 8 software using a nonlinear regression fitting equation. The IC50 values were categorized by the following grades: […] Table 2 Inhibitory activity (IC50) of some compounds in the present disclosure against urate transporter

ICR mice = assay: Toxicity test: 28-day repeated administration in mice, histopathological examination of liver and kidney; conditions: intragastric gavage 200 mg/kg once daily for 28 consecutive days, 8 mice per group
Description: The toxicity of each compound was evaluated following 28-day repeated administration in mice.
Method: ICR mice that passed quarantine were selected, with equal numbers of males and females. The mice were randomly grouped based on body weight and sex, with 8 mice per group. The test compounds included the compounds of the present disclosure and a positive drug Verinurad. The test compounds were administered to the animals via intragastric gavage at a dosage of 200 mg/kg, once daily for 28 consecutive days. Detailed clinical observations were performed after each administration, with at least 2 h observation following the first administration or upon detection of abnormalities. In addition, cage-side observations were conducted once daily in the afternoon. Observations included clinical signs (animal appearance, behavior, diet, response to stimuli, secretions and excretions) and mortality (time of death or time of discovery of death, pre-mortem signs, etc.). In addition, the symptoms of animals, and the onset, severity, and duration of any observed clinical symptoms of animals were recorded. On Day 28 of administration, the mice were euthanized immediately after blood collection was completed and subjected to necropsy. Livers and left kidneys were collected for paraffin embedding, sectioning and hematoxylin-eosin (HE) staining, followed by histopathological examination to observe tissue lesions. Special attention was paid to the degeneration and inflammatory changes in glomeruli and renal tubules, as well as the presence of urea crystals. The animals euthanized due to found moribund or the animals dead during the experiment were subjected to necropsy promptly.

[2] = Flp-In-T-REx-293-hURAT1 cells, 50 µmol/L 14C-uric acid, 5 min at 37°C, read-out: IC50

| Compound | IC50 [1, 2] [µM] | IC50 [1] [µM] | hepatic or renal toxicity upon histopathological examination (ICR mice) | renal toxicity (number of mice affected) (ICR mice) | renal toxicity (percentage of mice affected) (ICR mice) [%] |
| --- | --- | --- | --- | --- | --- |
| CC(C)(Sc1ccncc1Cc1ccc(C#N)c2ccccc12)C(=O)O [CDER167, reference compound] | > 1 |  |  |  |  |
| CC(C)(Sc1ccccc1Cn1cc(C#N)c2ccccc21)C(=O)O [Compound F-02] |  | 0.1 to 0.5 | no hepatic or renal toxicity |  |  |
| CC(C)(Sc1ccccc1Cn1cc(C#N)c2cnccc21)C(=O)O [Compound F-05] | < 0.1 |  | no hepatic or renal toxicity |  |  |
| CC(C)(Sc1ccccc1Cn1cc(C#N)c2cccnc21)C(=O)O [Compound F-07] |  | < 0.1 | no hepatic or renal toxicity |  |  |
| CC(C)(Sc1ccccc1Cn1cc(C#N)c2cncnc21)C(=O)O [Compound F-08] | 0.1 to 0.5 |  | no hepatic or renal toxicity |  |  |
| CC(C)(Sc1ccc(F)cc1Cn1cc(C#N)c2ccccc21)C(=O)O [Compound F-09] |  | 0.1 to 0.5 | no hepatic or renal toxicity |  |  |
| CC(C)(Sc1ccc(Cl)cc1Cn1cc(C#N)c2ccccc21)C(=O)O [Compound F-10] | 0.1 to 0.5 |  | no hepatic or renal toxicity |  |  |
| CC(C)(Sc1ccc(Br)cc1Cn1cc(C#N)c2ccccc21)C(=O)O [Compound F-11] | 0.1 to 0.5 |  | no hepatic or renal toxicity |  |  |
| Cc1ccc(SC(C)(C)C(=O)O)c(Cn2cc(C#N)c3ccccc32)c1 [Compound F-12] |  | 0.1 to 0.5 | no hepatic or renal toxicity |  |  |
| COc1ccc(SC(C)(C)C(=O)O)c(Cn2cc(C#N)c3ccccc32)c1 [Compound F-13] | 0.1 to 0.5 |  | no hepatic or renal toxicity |  |  |
| CC(C)(Sc1ccccc1Cn1cc(C#N)c2c(F)cccc21)C(=O)O [Compound F-14] |  | 0.1 to 0.5 | no hepatic or renal toxicity |  |  |
| CC(C)(Sc1ccccc1Cn1cc(C#N)c2ccc(F)cc21)C(=O)O [Compound F-16] |  | 0.1 to 0.5 | no hepatic or renal toxicity |  |  |
| CC(C)(Sc1ccccc1Cn1cc(C#N)c2cccc(F)c21)C(=O)O [Compound F-17] |  | 0.1 to 0.5 | no hepatic or renal toxicity |  |  |
| N#Cc1cn(Cc2ccccc2SC2(C(=O)O)CCC2)c2ncccc12 [Compound F-20] |  | 0.1 to 0.5 | no hepatic or renal toxicity |  |  |
| N#Cc1cn(Cc2cc(F)ccc2SC2(C(=O)O)CCC2)c2ncccc12 [Compound F-26] |  | 0.1 to 0.5 | no hepatic or renal toxicity |  |  |
| N#Cc1cn(Cc2cc(Cl)ccc2SC2(C(=O)O)CCC2)c2ncccc12 [Compound F-27] | 0.1 to 0.5 |  | no hepatic or renal toxicity |  |  |
| N#Cc1cn(Cc2cc(Br)ccc2SC2(C(=O)O)CCC2)c2ncccc12 [Compound F-28] | 0.1 to 0.5 |  | no hepatic or renal toxicity |  |  |
| COc1ccc(SC2(C(=O)O)CCC2)c(Cn2cc(C#N)c3cccnc32)c1 [Compound F-30] | 0.1 to 0.5 |  | no hepatic or renal toxicity |  |  |
| CC(C)(Sc1ccncc1-c1ccc(C#N)c2ccccc12)C(=O)O [Verinurad, reference compound] | 0.5 to 1 |  |  | 3 out of 8 | 37.5 |
